The nature of assay [1]: Trypanosoma cruzi growth suppression in host cells – NIH3T3 host cells, beta-gal luminescence, confirmation (AID 2044).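 Also: intracellular parasites grown in NIH/3T3 mouse fibroblasts as host cells; luminescent beta-galactosidase reporter signal from transgenic T. cruzi replicating inside host cells; inhibitors lower the luminescence signal.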 The assay is classed as functional, cell-based.
The nature of assay [2]: general cell-killing toxicity readout – plate reader, dry powder samples, cytotoxicity control for PAX8 inhibitor project, dose response (AID 743021). In kind it is functional, cell-based.
Assay [3] in a line: Luminescence Cell-Based Dose Response HTS to Identify Inhibitors of 5'UTR Stem-Loop Driven Prion Protein mRNA Translation in H4 Neuroglioblastoma Cells. [Related pubchem assays: 1827 (Project Summary), 1813 (Primary HTS)]. The assay is classed as functional.
Assay [4] can be described thus: NIH3T3 cell viability loss – ATP luminescence, mouse fibroblasts, counter-screen, dose response (AID 2010).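 Also: cells exposed to compound for about 90 hours before reading.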 In kind it is functional, cell-based. (In general: Counterscreens check selectivity or assay interference.)
For the next assay, the target named is Paired box protein Pax-8 (Homo sapiens, UniProt Q06710). As to the kind of experiment: PAX8 transcriptional activity inhibition in RMG-I – RMG-I cells, luciferase, cherry-pick, dose response (AID 687027).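 Also: luciferase reporter driven by Pax8 target thyroperoxidase promoter measured by SteadyGlo luminescence.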 In kind it is functional, cell-based.
Sequence of Paired box protein Pax-8 (Q06710 whole entry): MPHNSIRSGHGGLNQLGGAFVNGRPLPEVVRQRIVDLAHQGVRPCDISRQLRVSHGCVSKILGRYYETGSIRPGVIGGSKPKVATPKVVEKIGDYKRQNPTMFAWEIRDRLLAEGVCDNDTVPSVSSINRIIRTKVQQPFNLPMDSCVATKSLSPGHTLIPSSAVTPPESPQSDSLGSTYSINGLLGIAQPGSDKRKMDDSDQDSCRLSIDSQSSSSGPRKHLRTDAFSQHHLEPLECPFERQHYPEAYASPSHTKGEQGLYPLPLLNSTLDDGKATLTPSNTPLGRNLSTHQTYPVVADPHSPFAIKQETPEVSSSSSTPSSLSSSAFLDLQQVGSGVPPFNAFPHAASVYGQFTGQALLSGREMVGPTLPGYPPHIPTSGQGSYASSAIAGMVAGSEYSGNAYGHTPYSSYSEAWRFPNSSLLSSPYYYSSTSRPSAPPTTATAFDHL
The target in assay [5] is T1, Heat shock factor protein 1 (Mus musculus, UniProt P38532).
T1 sequence (P38532 whole entry): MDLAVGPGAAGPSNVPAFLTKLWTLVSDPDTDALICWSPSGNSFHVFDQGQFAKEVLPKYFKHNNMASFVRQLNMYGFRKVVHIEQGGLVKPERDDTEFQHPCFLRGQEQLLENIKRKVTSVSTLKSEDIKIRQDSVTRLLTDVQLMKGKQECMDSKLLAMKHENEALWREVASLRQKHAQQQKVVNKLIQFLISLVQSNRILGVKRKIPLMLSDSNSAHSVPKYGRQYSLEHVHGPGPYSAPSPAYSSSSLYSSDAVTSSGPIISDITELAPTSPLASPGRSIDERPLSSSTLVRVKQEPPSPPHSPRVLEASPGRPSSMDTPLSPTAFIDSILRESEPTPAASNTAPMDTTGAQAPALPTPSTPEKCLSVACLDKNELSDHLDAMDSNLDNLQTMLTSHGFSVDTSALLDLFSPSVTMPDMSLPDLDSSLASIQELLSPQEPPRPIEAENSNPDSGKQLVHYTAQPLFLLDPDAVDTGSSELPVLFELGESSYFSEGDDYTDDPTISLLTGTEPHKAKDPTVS
As to the kind of experiment: enhancement of HSF1-driven luciferase signal – cell-based, NIH3T3, luminescence, dose retest, confirmation (AID 435004).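 Also: stress induced by proteasome inhibitor MG132 added 30 min after compound; luciferase reporter driven by HSF1 response element in NIH3T3 cells; actives raise luminescence as potentiators of the MG132 stress response.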 The assay is classed as functional.

A short description of assay [6]: alpha-synuclein stem-loop luciferase translation blockers – H4 neuroglioma cells, luminescence, confirmation (AID 1988). The assay is classed as functional, cell-based.
A further assay has as its system INS1. Briefly: INS-1E survival protection against cytokine death – cell-based, luminescence, retest, dose response (AID 449756).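 Also: cell death triggered by IL-1 beta plus TNF-alpha plus IFN-gamma mixture; protective hits raise ATP signal compared with cytokine alone wells.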 The assay is classed as functional. The following applies: Rattus norvegicus.
A short description of assay [7]: luciferase reporter signal suppression in cells – H4 neuroglioma cells, luminescence, dose response (AID 1990). In kind it is functional, cell-based.
Assay [8] deals with T2, Ubiquitin-conjugating enzyme E2 N (Homo sapiens, UniProt P61088).
T2 sequence (P61088 whole entry): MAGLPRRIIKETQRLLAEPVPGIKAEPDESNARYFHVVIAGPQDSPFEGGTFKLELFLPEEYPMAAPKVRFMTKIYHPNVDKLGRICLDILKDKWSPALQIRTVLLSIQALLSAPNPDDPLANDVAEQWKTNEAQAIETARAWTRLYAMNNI
In kind it is functional.

Activity calls are given as the source filed them. Rule as the data show it, for most assays here: actives have a measured EC50 and inactives only a lower limit.
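For IC50 in this document: Dose-response confirmation in a TR-FRET assay detecting UBC13-driven polyubiquitin chain formation, inhibition measured.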

Usually EC50 stands for the concentration that produces a half-maximal response. The term AC50 denotes the midpoint of the concentration-response curve, whichever way the signal moves. One may read the IC50 as the concentration needed to halve the response being measured. As to `COc1ccc(/C=N/Nc2cc(C)nc3ccc(Br)cc23)cc1`, the EC50 in [1] was 1.55 µM (active); in [3], 8.17 µM (active); in assay [4], 8.92 µM (active); in [5] it was > 260 µM (inactive); in assay [6] it was 7.61 µM (active); in [7], > 120 µM (not active). The AC50 in assay [2] is 26.8 µM (active); on Paired box protein Pax-8 it was 8.78 µM (active); with INS1, 5.79 µM (active). Moreover, the IC50 in assay [8] was > 20 µM (inactive).

Values taken from ChEMBL document CHEMBL1201862, “PubChem BioAssay data set” (2004).
